Data published in publication PMC8209656 (The Journal of endocrinology, 2010).

Assays:
Test in all cases: ethoxyresorufin-O-deethylase fluorescence, recombinant membranes
Type in all cases: biochemical
Details in all cases: 30 °C; human CPR co-expressed
CYP1B1 = biological target: T1, CYP1B1 (Danio rerio, UniProt Q1JQ70)
T1 sequence (Q1JQ70 1-526): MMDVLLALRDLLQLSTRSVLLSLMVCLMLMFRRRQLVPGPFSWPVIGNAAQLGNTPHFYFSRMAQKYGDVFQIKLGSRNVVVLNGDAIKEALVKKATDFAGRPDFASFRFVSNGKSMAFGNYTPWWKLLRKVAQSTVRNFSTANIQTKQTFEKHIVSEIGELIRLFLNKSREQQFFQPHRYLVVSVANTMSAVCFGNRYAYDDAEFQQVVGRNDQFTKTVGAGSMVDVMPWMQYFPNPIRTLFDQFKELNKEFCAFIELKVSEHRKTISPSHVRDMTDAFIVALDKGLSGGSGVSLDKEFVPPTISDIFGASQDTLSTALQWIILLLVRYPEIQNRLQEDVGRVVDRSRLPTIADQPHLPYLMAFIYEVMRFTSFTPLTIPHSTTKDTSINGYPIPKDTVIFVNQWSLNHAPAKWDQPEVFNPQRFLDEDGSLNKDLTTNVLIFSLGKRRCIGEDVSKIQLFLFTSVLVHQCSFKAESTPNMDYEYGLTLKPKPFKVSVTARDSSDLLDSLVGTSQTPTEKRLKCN

CYP1C2 = biological target: T2, CYP1C2 (Danio rerio, UniProt A0AC58HLV5)
T2 sequence (A0AC58HLV5 1-514): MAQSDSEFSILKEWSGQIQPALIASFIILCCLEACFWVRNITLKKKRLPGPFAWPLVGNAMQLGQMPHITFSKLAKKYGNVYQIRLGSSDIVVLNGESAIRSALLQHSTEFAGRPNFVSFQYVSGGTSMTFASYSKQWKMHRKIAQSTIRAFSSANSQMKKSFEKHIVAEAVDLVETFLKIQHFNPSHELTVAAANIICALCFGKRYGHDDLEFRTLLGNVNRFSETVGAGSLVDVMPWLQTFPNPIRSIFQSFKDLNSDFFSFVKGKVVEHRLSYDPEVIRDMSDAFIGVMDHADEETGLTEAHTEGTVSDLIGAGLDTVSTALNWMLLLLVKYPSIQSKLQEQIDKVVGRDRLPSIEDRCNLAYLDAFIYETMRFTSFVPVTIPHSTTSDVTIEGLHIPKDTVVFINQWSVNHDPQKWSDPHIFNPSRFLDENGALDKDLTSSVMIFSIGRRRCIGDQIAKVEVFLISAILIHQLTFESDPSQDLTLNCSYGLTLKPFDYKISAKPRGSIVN

CYP1C1 = biological target: T3, CYP1C1 (Danio rerio, UniProt A0A8M1N631)
T3 sequence (A0A8M1N631 13-523): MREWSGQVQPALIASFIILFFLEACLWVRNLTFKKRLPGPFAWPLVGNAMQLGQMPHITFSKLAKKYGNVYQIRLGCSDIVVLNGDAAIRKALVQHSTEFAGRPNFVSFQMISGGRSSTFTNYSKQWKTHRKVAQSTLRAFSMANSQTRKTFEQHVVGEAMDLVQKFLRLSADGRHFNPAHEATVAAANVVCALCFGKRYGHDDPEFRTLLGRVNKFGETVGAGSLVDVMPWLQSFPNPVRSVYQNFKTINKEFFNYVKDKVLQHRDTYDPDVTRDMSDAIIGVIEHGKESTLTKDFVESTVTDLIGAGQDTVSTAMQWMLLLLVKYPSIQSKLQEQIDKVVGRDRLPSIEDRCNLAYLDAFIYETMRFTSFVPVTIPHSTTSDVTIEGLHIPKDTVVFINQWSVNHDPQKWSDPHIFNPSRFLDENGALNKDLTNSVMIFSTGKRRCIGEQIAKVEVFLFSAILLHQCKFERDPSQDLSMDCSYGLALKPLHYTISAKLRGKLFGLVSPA

SMILES: CCOc1ccc2nc3ccc(=O)cc-3oc2c1 [7-ethoxyresorufin]
- ethoxyresorufin-O-deethylase fluorescence, recombinant membranes (CYP1B1): All CYP1s showed catalytic activity for 7-ER and BFC except for CYP1D1 and CYP3A65
- ethoxyresorufin-O-deethylase fluorescence, recombinant membranes (CYP1C2): All CYP1s showed catalytic activity for 7-ER and BFC except for CYP1D1 and CYP3A65
- ethoxyresorufin-O-deethylase fluorescence, recombinant membranes (CYP1C1): All CYP1s showed catalytic activity for 7-ER and BFC except for CYP1D1 and CYP3A65
